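1) Cells in 96-well plates. 2) Compound, 48 h, 5 concentrations. 3) Linear interpolation between surrounding doses. 4) Unreached endpoint = highest concentration. TGI marks complete inhibition of growth.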
Tests used:
Assay in all cases: NCI tumour cell line growth inhibition, 48 h
[1] = system: DLD-1 colon
[2] = system: DMS 273 small cell lung
[3] = system: SNB-78 CNS
[4] = system: RXF-631 renal
[5] = system: P388/ADR leukemia
[6] = system: P388 leukemia
[7] = system: SN12K1 renal

| SMILES | TGI [1] | TGI [2] | TGI [3] | TGI [4] | TGI [5] | TGI [6] | TGI [7] |
| --- | --- | --- | --- | --- | --- | --- | --- |
| CCc1c2cc(OC)c(OC)cc2cc2c3cc(OC)c(OC)cc3cc[n+]12 (tested in a mixture with another compound) | > 100 µM | > 100 µM | > 100 µM |  |  |  |  |
| CCC1C(C#N)=C(O)NC(O)=C1C#N | > 100 µM | > 100 µM | > 100 µM | > 100 µM |  |  |  |
| O=NN1C(c2ccccc2)C2CCCC(C2=O)C1c1ccccc1 (stereo unspecified) | > 100 µM | 55.2 µM | > 100 µM |  | 45.9 µM | > 64.1 µM | > 71.3 µM |
| NC1C=NNC1=O (stereo unspecified) | > 100 µM | > 100 µM | > 100 µM |  |  |  |  |

From PubChem BioAssay (NCI)
